Data set [1] concerns the target JRFL (R5) luciferase reporter pseudovirions on HOS-CD4-CCR5. The settings on record: values marked * from Francis, et al. Bioconjugates, read-out: Antiviral potency JRFL (IC50); cited from earlier work.
In data set [2] the target is HXB2 (X4) luciferase reporter pseudovirions on HOS-CD4-CXCR4. Conditions: values marked * from Francis, et al. Bioconjugates, read-out: Antiviral potency HXB2 (IC50); cited from earlier work.
Data set [3] can be described thus: Rodent pharmacokinetics of PIE12-trimer and conjugates (Table 3 protocol). The class given is in vivo, Sprague Dawley rats. Conditions: rats, 1.0 mg/kg, plasma, median; for half-life: read-out: T1/2 (converted). The procedure:
At each timepoint, plasma was obtained using lithium heparin.
Samples were spiked with an internal standard then precipitated with two volumes of 98% acetonitrile/2% Formic acid. Supernatants were analyzed by LC/MS/MS using an Agilent HPLC system (Waters X-Bridge BEH C18 column) paired to an AB Sciex API 3000 triple-quad mass spectrometer using MRM methods. Lipid conjugates required lower source temperatures (300° C. vs 500° C.) for improved reproducibility.

SMILES strings stand for the structures. Where two headings read alike, the source gives them in different places.

For the compound `CC(=O)N[C@H](Cc1c[nH]cn1)C(=O)N1CCC[C@@H]1C(=O)N[C@@H]1CSSC[C@H](C(=O)N[C@H](CCC(=O)O)C(=O)N[C@H](CC(C)C)C(=O)NCC(=O)N[C@H](CCCCNC(=O)CCOCCOCCOCCOCCNC(=O)CCOCC(N)(COCCC(=O)NCCOCCOCCOCCOCCC(=O)NCCCC[C@@H](NC(=O)CNC(=O)[C@@H](CC(C)C)NC(=O)[C@@H](CCC(=O)O)NC(=O)[C@H]2CSSC[C@@H](NC(=O)[C@H]3CCCN3C(=O)[C@@H](Cc3c[nH]cn3)NC(C)=O)C(=O)N[C@H](CC(=O)O)C(=O)N[C@H](Cc3ccc(O)cc3)C(=O)N3CCC[C@@H]3C(=O)N[C@H](CCC(=O)O)C(=O)N[C@H](Cc3c[nH]c4ccccc34)C(=O)N[C@H](CCC(N)=O)C(=O)N[C@H](Cc3c[nH]c4ccccc34)C(=O)N[C@H](CC(C)C)C(=O)N2)C(N)=O)COCCC(=O)NCCOCCOCCOCCOCCC(=O)NCCCC[C@@H](NC(=O)CNC(=O)[C@@H](CC(C)C)NC(=O)[C@@H](CCC(=O)O)NC(=O)[C@H]2CSSC[C@@H](NC(=O)[C@H]3CCCN3C(=O)[C@@H](Cc3c[nH]cn3)NC(C)=O)C(=O)N[C@H](CC(=O)O)C(=O)N[C@H](Cc3ccc(O)cc3)C(=O)N3CCC[C@@H]3C(=O)N[C@H](CCC(=O)O)C(=O)N[C@H](Cc3c[nH]c4ccccc34)C(=O)N[C@H](CCC(N)=O)C(=O)N[C@H](Cc3c[nH]c4ccccc34)C(=O)N[C@H](CC(C)C)C(=O)N2)C(N)=O)C(N)=O)NC(=O)[C@@H](CC(C)C)NC(=O)[C@@H](Cc2c[nH]c3ccccc23)NC(=O)[C@@H](CCC(N)=O)NC(=O)[C@@H](Cc2c[nH]c3ccccc23)NC(=O)[C@@H](CCC(=O)O)NC(=O)[C@H]2CCCN2C(=O)[C@@H](Cc2ccc(O)cc2)NC(=O)[C@@H](CC(=O)O)NC1=O` [PIE12-trimer], the IC50 in data set [1] was 2.1 ± 0.28 nM. In data set [2], the IC50 was 0.72 ± 0.04 nM. In data set [3] (rat, in vivo, IV), the AUC(0-inf) is 0.168 µM·h, the C0 was found to be 275 nM and the half-life was 33 min. Besides, the clearance in data set [3] (rat, in vivo, IV, read-out: Cl (obs) (converted)) was 13.9 mL/min/kg. In addition, the Vd in data set [3] (rat, in vivo, IV, read-out: Vz (obs)) worked out at 0.7 L/kg. Also, in data set [3] (rat, in vivo, SC), the AUC(0-inf) is 0.208 µM·h, the Cmax came out at 80 nM, the Tmax is 30 min and the half-life was 48.6 min. This compound registered a F in data set [3] (SC) of 96%.

Broadly, the IC50 is the concentration at which inhibition is half-maximal. Usually AUC(0-inf) stands for the area under the concentration-time curve extrapolated to infinity. A word on the Cmax: it is the maximum level reached in the sampled fluid or tissue. As usually defined, the Tmax is the time at which the peak concentration occurs.

The values are drawn from patent US10487121B2, “D-peptide inhibitors of HIV entry and methods of use” (priority 2016, dated 2019).
